The values below come from PMC11123692, “Sugar-Based Surfactants: Effects of Structural Features on the Physicochemical Properties of Sugar Esters and Their Comparison to Commercial Octyl Glycosides” (Molecules, 2024).

≈ marks a conversion by molar mass, not a printed value. Where “and” joins values, the source holds several entries; their conditions need not be identical. Identical values can stand only once. Like-named read-outs stand apart in the source and are kept apart here. A value given as a limit tells only on which side of the number the result lay.

The conditions of series [1]: cited from earlier work.
The nature of series [2]: Water solubility limit by visual examination (transparent/turbid). The class given is physicochemical. Conditions: water, water; for solubility: thermodynamic from solid, read-out: Solubility Limit (S/mM). The source says:
Water solubility reflects the ability of a particular molecule to dissolve and its interaction with water. To characterize the water solubility of most amphiphile molecules, especially the ionic surfactants, the Krafft point (Tk) is often used, referring to the critical temperature above which micelles form or the melting point of the hydrated solid surfactant. Two general approaches were used to measure the Tks of the molecules investigated herein: (1) a visual examination of the dissolution phenomenon for binary molecule/water systems, and (2) a quantitative measurement by using differential scanning calorimetry (DSC) analysis. The visual observation procedure is detailed below. […] Consequently, molecules can be classified into two major types: those soluble in water at RT and others insoluble at RT, with the solubility limit being called S (expressed in mM). The aspect of the sample, either transparent or turbid, is determined by direct visual examination. Tk determination with DSC is particularly applicable in the case of molecules insoluble at RT, for which a concentrated binary molecule/water mixture with a mass fraction of 20% of each molecule (C >> CMC in most cases) was prepared at 65 °C under stirring for 30 min to obtain a homogeneous system. These pre-homogenized aqueous systems were cooled and conserved in a refrigerator at 4 °C for a suitable period (>7 days), during which equilibrated hydrated crystals formed and precipitated. Then, for each molecule, about a 200–400 mg crystal sample was taken and put into the calorimeter cell. The first equilibrium phase was programmed at 4 °C for 1 h, followed by a slow heating stage from 4 °C to 65 °C at a rate of 0.5 °C/min. Tk was determined based on the location of the endothermic peak on the DSC curve, if any. All agitations were performed using a standard magnetic hotplate stirrer, MR 3001K (Heidolph Instruments, Schwabach, Germany). DSC curves were obtained from a commercial µDSC7 evo calorimeter (SETARAM Instrumentation, Caluire-et-Cuire, France). Tks are reported as the averages of at least two measurements as well as their standard deviations.

The nature of series [3]: Krafft temperature (Tk) by visual examination and DSC of molecule/water systems. The class given is physicochemical. Conditions: in water; observation and DSC; average ± SD of at least two measurements. An excerpt: Water solubility reflects the ability of a particular molecule to dissolve and its interaction with water. To characterize the water solubility of most amphiphile molecules, especially the ionic surfactants, the Krafft point (Tk) is often used, referring to the critical temperature above which micelles form or the melting point of the hydrated solid surfactant. Two general approaches were used to measure the Tks of the molecules investigated herein: (1) a visual examination of the dissolution phenomenon for binary molecule/water systems, and (2) a quantitative measurement by using differential scanning calorimetry (DSC) analysis. The visual observation procedure is detailed below. We start with adding the molecule into 5–50 mL water, in a concentration range between 10^−2 mM and 10^3 mM (corresponding to a range of a surfactant mass concentration well below 20%), keeping the suspension under stirring for a certain time at room temperature (RT). Consequently, molecules can be classified into two major types: those soluble in water at RT and others insoluble at RT, with the solubility limit being called S (expressed in mM). The aspect of the sample, either transparent or turbid, is determined by direct visual examination. Tk determination with DSC is particularly applicable in the case of molecules insoluble at RT, for which a concentrated binary molecule/water mixture with a mass fraction of 20% of each molecule (C >> CMC in most cases) was prepared at 65 °C under stirring for 30 min to obtain a homogeneous system. These pre-homogenized aqueous systems were cooled and conserved in a refrigerator at 4 °C for a suitable period (>7 days), during which equilibrated hydrated crystals formed and precipitated. Then, for each molecule, about a 200–400 mg crystal sample was taken and put into the calorimeter cell. The first equilibrium phase was programmed at 4 °C for 1 h, followed by a slow heating stage from 4 °C to 65 °C at a rate of 0.5 °C/min. Tk was determined based on the location of the endothermic peak on the DSC curve, if any. All agitations were performed using a standard magnetic hotplate stirrer, MR 3001K (Heidolph Instruments, Schwabach, Germany). DSC curves were obtained from a commercial µDSC7 evo calorimeter (SETARAM Instrumentation, Caluire-et-Cuire, France). Tks are reported as the averages of at least two measurements as well as their standard deviations.

Series [4] can be described thus: Equilibrium surface tension, Wilhelmy plate method (CMC, γcmc, Amin and derived quantities). It is filed as physicochemical. Conditions: for Amin: from Gibbs adsorption equation. Here is the method:
CMCs are determined from the inflections in the plots of equilibrium surface tension against the logarithm of the concentration. For the interested reader, the Gibbs-free energy of micellization, ΔGmic, the Gibbs-free energy of adsorption, ΔGads, and the efficiency of surfactant adsorption pC20 were calculated based on their definitions, as presented in Table 2.
The surface activity reflects the amphiphiles’ adsorption behavior on the air–aqueous solution interface. The surface tension (γ) was obtained using the Wilhelmy plate method with a K100 Processor Tensiometer (KRUSS, Hamburg, Germany). Both the critical micellar concentration (CMC) and equilibrium surface tension at the CMC (γcmc) were derived from the typical plot of surface tension (γ) against the logarithm of concentration (Log C). The surface excess (Γmax) and minimal area per molecule at the air–aqueous solution interface (Amin) at different temperatures were calculated from the Gibbs adsorption equation [3, 46]:(2) Γmax=−1/2.303RT(dγ/dlogc) and (3) Amin=10^20/NAΓmax where R is the ideal gas constant, 8.31 J∙mol^−1∙K^−1; T is the measuring temperature, K; γ is the surface tension, N/m; c is the concentration, mol.L^−1; Amin is the minimal area per molecule, Å^2, and NA is Avogadro’s number, 6.022·10^23 mol^−1.
For each molecule, several solutions of a wide range of concentrations were prepared. Before measuring, each solution was finely homogenized with the help of a magnetic stirring bar. The stirring time was fixed at 30 min in all cases. […] Then, measurements were performed once for each concentration, at the solution preparation’s temperature, with an uncertainty of ±1 °C.

Setting [5] is: at 25 °C, mixture of α and β anomers.

Take `CCCCCCCC(=O)O[C@H]1[C@H](O)[C@@H](CO)OC(O)[C@@H]1O` (stereo partly drawn) [3-O-octanoyl-D-glucopyranose]: the CMC is reported as 0.61 mM in series [1] (mixture of α and β anomers); 1.6 mM in series [1] (ref 21).

`CCCCCCCC(=O)OC1O[C@H](CO)[C@@H](O)[C@H](O)[C@H]1O` (stereo partly drawn) [D-glucosyl octanoate]: the CMC in series [1] (setting [5]) is on record as 19.1 mM.

Turning to `CCCCCCOC(=O)[C@H]1O[C@H](OC)[C@H](O)[C@@H](O)[C@@H]1O` [MeαGlc(C=O)OC6], the solubility in series [2] (at RT) is no more than 50 mM. Also, the “Tk (Krafft temperature)” value in series [3] is less than 4 °C. Also, in series [4] (T = 25 °C), the C20 was determined as 5.9 mM, the pC20 was determined as 2.2, the ΔGads is -5.9 kcal/mol and the ΔGmic was -3.6 kcal/mol. The Amin in series [4] (T = 25 °C) is given as 39.2 ± 2.9 Å^2/molecule. In series [4] (T = 25 °C (T > Tk)), this molecule yielded a CMC of 55 ± 5 mM and a γcmc of 30.8 ± 0.8 mN/m.

With `CCCCCCCCOC(=O)[C@H]1O[C@H](OC)[C@H](O)[C@@H](O)[C@@H]1O` [MeαGlc(C=O)OC8, methyl octyl α-D-glucuronate], the solubility in series [2] (at RT) lay within 15 to 20 mM (≈ 4810 to 6410 µg/mL). In series [3], the “Tk (Krafft temperature)” value was less than 4 °C. In series [4] (T = 25 °C), the C20 is on record as 0.5 mM, the pC20 amounted to 3.3, the ΔGads is -7.3 kcal/mol and the ΔGmic is -4.8 kcal/mol. In addition, the Amin in series [4] (T = 25 °C) came to 41 ± 1 Å^2/molecule. Also, in series [4] (T = 25 °C (T > Tk)), the CMC was 6 mM and 6 ± 0.5 mM; the γcmc is 29.2 ± 0.35 mN/m.

As for `CCCCCCCCCCOC(=O)[C@H]1O[C@H](OC)[C@H](O)[C@@H](O)[C@@H]1O` [MeαGlc(C=O)OC10], the solubility in series [2] (at RT) was in the range of 0.5 to 0.75 mM (≈ 174 to 261 µg/mL). The “Tk (Krafft temperature)” value in series [3] is less than 4 °C. Moreover, in series [4] (T = 25 °C), the C20 was 0.05 mM, the pC20 stood at 4.3, the ΔGads is -8.6 kcal/mol and the ΔGmic is -5.9 kcal/mol. In addition, the Amin in series [4] (T = 25 °C) is on record as 42.4 ± 2 Å^2/molecule. In series [4] (T = 25 °C (T > Tk)), this molecule registered a CMC of 0.65 ± 0.5 mM and a γcmc of 28.1 ± 0.1 mN/m.

As to `CCCCCCCCCCCCOC(=O)[C@H]1O[C@H](OC)[C@H](O)[C@@H](O)[C@@H]1O` [MeαGlc(C=O)OC12], in series [2] (at RT), the solubility was 0.02 to 0.05 mM (≈ 7.53 to 18.8 µg/mL). Moreover, in series [3], the “Tk (Krafft temperature)” value worked out at 22.1 ± 0.2 °C. In series [4] (T = 25 °C), the C20 is 0.004 mM, the pC20 was determined as 5.4, the ΔGads is -10.1 kcal/mol and the ΔGmic is -7.2 kcal/mol. For the same molecule, the Amin in series [4] (T = 25 °C) is 45.6 ± 5 Å^2/molecule. In series [4] (T = 25 °C (T > Tk)), this molecule registered a CMC of 0.056 ± 0.004 mM and a γcmc of 28.3 ± 0.3 mN/m.

On to `CCCCCC(=O)OC[C@H]1O[C@H](OC)[C@H](O)[C@@H](O)[C@@H]1O` [MeαGlcO(C=O)C5, Methyl 6-O-hexanoyl-α-D-glucopyranoside], for which, in series [2] (at RT), the solubility is less than 40 mM. In addition, the “Tk (Krafft temperature)” value in series [3] was less than 4 °C. In series [4] (T = 25 °C), this molecule registered a C20 of 11.2 mM, a pC20 of 2.0, a ΔGads of -5.6 kcal/mol and a ΔGmic of -3.3 kcal/mol. For the same molecule, in series [4] (T = 25 °C), the Amin was 40.1 ± 0.3 Å^2/molecule. In series [4] (T = 25 °C (T > Tk)), this molecule yielded a CMC of 105 ± 5 mM and a γcmc of 31 ± 0.1 mN/m.

Regarding `CCCCCCCC(=O)OC[C@H]1O[C@H](OC)[C@H](O)[C@@H](O)[C@@H]1O` [MeαGlcO(C=O)C7, Methyl 6-O-octanoyl-α-D-glucopyranoside], the solubility in series [2] (at RT) is no more than 10 mM. The solubility in series [2] (at T > Tk) is less than 10 mM. Moreover, the “Tk (Krafft temperature)” value in series [3] was less than 4 °C. Also, in series [4] (T = 25 °C), the C20 was determined as 1.0 mM, the pC20 turned out to be 3.0, the ΔGads is -6.9 kcal/mol and the ΔGmic was -4.5 kcal/mol. The same molecule showed an Amin in series [4] (T = 25 °C) of 39 ± 2 Å^2/molecule. In addition, in series [4] (T = 25 °C (T > Tk)), the CMC was 9.8 mM and 9.8 ± 0.76 mM; the γcmc is recorded as 29.5 ± 0.5 mN/m.

Regarding `CCCCCCCCCC(=O)OC[C@H]1O[C@H](OC)[C@H](O)[C@@H](O)[C@@H]1O` [MeαGlcO(C=O)C9, Methyl 6-O-decanoyl-α-D-glucopyranoside], the “Solubility Limit (S/mM)” value in series [2] (at RT) is listed as “insoluble”. For the same molecule, the solubility in series [2] (at T > Tk) is no more than 1 mM. Besides, in series [3], the “Tk (Krafft temperature)” value was determined as 26.5 ± 0.2 °C. In series [4] (T = 30 °C), this molecule showed a C20 of 0.08 mM, a pC20 of 4.1, a ΔGads of -8.4 kcal/mol and a ΔGmic of -5.8 kcal/mol. The same molecule gave an Amin in series [4] (T = 30 °C) of 41.8 ± 0.9 Å^2/molecule. Moreover, in series [4] (T = 30 °C (T > Tk)), the CMC is recorded as 0.92 ± 0.08 mM and the γcmc was determined as 27.9 ± 0.05 mN/m.

For the molecule `CCCCCCCCCCCC(=O)OC[C@H]1O[C@H](OC)[C@H](O)[C@@H](O)[C@@H]1O` [MeαGlcO(C=O)C11, Methyl 6-O-dodecanoyl-α-D-glucopyranoside], the “Solubility Limit (S/mM)” value in series [2] (at RT) is “insoluble”. For the same molecule, the solubility in series [2] (at T > Tk) is no more than 0.1 mM. Besides, the “Tk (Krafft temperature)” value in series [3] stood at 42.9 ± 0.1 °C. Moreover, in series [4] (T = 50 °C), the C20 is on record as 0.007 mM, the pC20 turned out to be 5.1, the ΔGads is -10.4 kcal/mol and the ΔGmic was -7.7 kcal/mol. In series [4] (T = 50 °C), this molecule had an Amin of 45.8 ± 2.8 Å^2/molecule. In addition, in series [4] (T = 50 °C (T > Tk)), the CMC came to 0.08 ± 0.005 mM and the γcmc was 26.7 ± 0.25 mN/m.

`CCCCCCCCOC(=O)[C@@H](O)[C@@H](O)[C@H](O)[C@@H](O)C=O` [octyl D-glucuronate]: the CMC is on record as 10.7 mM in series [1] (setting [5]) and 10.68 mM in series [1] (ref 17).
